Square brackets hold non-standard residues; d marks the D form. Peptide text beside a SMILES is read from it. Phe(ol) = N[C@H](CO)Cc1ccccc1; Leu(ol) = CC(C)C[C@H](N)CO; dIva = CC[C@@](C)(N)C(=O)O; Aib = CC(C)(N)C(=O)O
Columns and labels:
P. falciparum Dd2 = test: Phenotypic screen: asexual blood stage EC50 determination (SYBR Green I); type: cell-based; conditions: asynchronous culture, 1% parasitemia, 1% hematocrit, 72 h, SYBR Green I; mean ± SEM, biological triplicate
Procedure: Asexual blood stage parasites grown in the Chakrabarti laboratory were cultured based on a protocol by Trager and Jensen[57] with some modifications.[35] Culture was maintained at 4% hematocrit with human A+ whole blood obtained from the Florida OneBlood, in RPMI 1640 supplemented with 25 mM HEPES pH 7.4, 26 mM NaHCO3, 2% dextrose, 15 mg/L hypoxanthine, 25 mg/L gentamycin, and 0.5% Albumax II. Incubator conditions remained at 37°C and 5% CO2, 5% O2, 90% N2, or 95% air. For comparison screening using serum vs Albumax II, culture media was changed from RPMI with 0.5% Albumax II to RPMI with 10% human serum and maintained for a minimum of 2 weeks prior to assay use.
Inhibitor EC50 determination in 3D7 and Dd2 was performed as discussed in,[35] based on established protocols.[60] Assays utilized asynchronous culture at 1% parasitemia, 1% hematocrit. Culture was incubated with compound dilutions for 72 h followed by freezing at −80°C to promote lysis, then thawing and incubation for 45 min–1 h with 1× SYBR Green I in a lysis buffer (20 mM Tris-HCL, 0.08% saponin, 5 mM EDTA, and 0.8% Triton X-100). Fluorescence was read 485 nm excitation, 530 nm emission on a Synergy Neo2 multimode reader (BioTek Winsooki, VT) and EC50 curves were generated using CDD Vault (https://www.collaborativedrug.com/).

attb ScDHODH = type: cell-based, P. falciparum; conditions: Asexual Blood Stage DHODH; line expressing S. cerevisiae DHODH; mean ± SEM of 3 biological replicates
Procedure: (§1) Parasites grown in the Winzeler laboratory for screening and drug selections were maintained in RPMI 1640 medium supplemented with 0.25% Albumax I, 26 mM sodium bicarbonate, 0.1 mM hypoxanthine, and […] gentamicin. Human O+ whole blood obtained from the Blood Bank of The Scripps Research Institute was used for cultivation (human subjects IRB number: 125933). Blood-stage cultures were kept at 37°C with 5% CO2, 3% O2, and 92% N2. Monitoring of parasitemia and parasite morphology was performed using microscopic evaluation of thin blood smears that were first fixed with methanol, and then stained with Giemsa.
(§2) Cross resistance screening was performed with 0.3% parasitemia, 2.5% hematocrit, dispensed into 1536-well black, clear bottom plates with pre-spotted compound using a MultiFloTM Microplate dispenser (BioTek) at a volume of 8 μL/well. Plates where then incubated at 37°C for 72 h, after which 10× SYBR Green I (Invitrogen) in a lysis buffer (20 mM Tris/HCl, 5 mM EDTA, 0.16% (w/v) saponin, 1.6% (v/v) […]) was then added using a MultiFloTM Microplate dispenser (BioTek) at a volume of 2 μL/well. After 24 h incubation at room temperature, viability was measured via fluorescence using the EnVision® Multilabel Reader (PerkinElmer) (485 nm excitation, 530 nm emission). IC50 values were determined in CDD vault (https://www.collaborativedrug.com/).

Attb = type: cell-based, P. falciparum; conditions: Asexual Blood Stage DHODH; mean ± SEM of 3 biological replicates
Procedure: as §1, §2

[1] = test system: P. falciparum 3D7 transcripts; test: Real-time quantitative PCR validation; type: cell-based; conditions: normalized to serine-tRNA ligase; 3 biological replicates
Procedure: For RT-qPCR validation, total RNA was extracted as previously described from vehicle and HZ NPDG-I treated samples collected for the RNASeq analysis. A total of 500 ng of RNA from each sample was reverse transcribed into cDNA using the SuperScript First-Strand Synthesis System for RT-PCR (Invitrogen, Waltham, MA) with 100 ng of random hexamers. Synthesized cDNA from each of the 3 biological replicates was tested using Select Master Mix (Life Technologies, Carlsbad, CA) with 400 nM of forward and reverse primers using a QuantStudio 7 Flex qPCR machine (Thermo Fisher, Waltham, MA). SYBR fluorescence was normalized to passive reference dye ROX. Ct values were normalized using the […] method by normalizing to housekeeping gene serine-tRNA ligase (PF3D7_0717700) and then normalizing between the treated and untreated controls. PCR parameters included 50°C for 2 min, 95°C for 10 min, followed by 40 cycles of 95°C for 15 s, 55°C for 30 seconds, and 60°C for 30 seconds. Primer pair sequences are listed in full in Table S5.

PfCARL_I1139K = test: Cross resistance screening (1536-well SYBR Green I); type: cell-based, P. falciparum; conditions: 72 h, mean ± SEM of 3 biological replicates
Procedure: as §1, §2

PfACS_A597 = test: as above; type: cell-based, P. falciparum; conditions: 72 h, mean ± SEM of 3 biological replicates
Procedure: as §1, §2

PfPI4K_S1320L = test: as above; type: cell-based, P. falciparum; conditions: 72 h, mean ± SEM of 3 biological replicates
Procedure: as §1, §2

HepG2-A16-CD81 cells = type: cell-based, H. sapiens; conditions: HepG2-A16-CD81 without sporozoites, CellTiterGlo; up to 50 μM; read-out: HepG2 EC50 (liver stage counter screen)
Procedure: The liver stage was performed as discussed in.[61] Liver-stage inhibitory activity was evaluated in HepG2-A16-CD81 cells and using P. berghei sporozoites (P. berghei ANKA GFP-Luc-SMcon) freshly obtained by dissecting salivary glands of infected A. stephensi mosquitoes. Cells were first seeded in 1536-well plates (Greiner Bio) containing 50 nL of test and control compounds dissolved in DMSO and incubated for 24 h. Sporozoites were then added to each well at a density of 1 × 10^3 cells per well and kept at 37°C for 48 h. Afterwards, luciferin reagent (Promega BrightGlo) was added to each well, and luciferase activity was detected using a Perkin Elmer Envision plate. As a counter screen, HepG2-A16-CD81 cells were seeded as above and exposed to drug in the absence of sporozoites. Viability was evaluated by adding Promega CellTiterGlo® followed by luminescence measurement using a Perkin Elmer Envision plate reader. IC50 values were determined using CDD vault (https://www.collaborativedrug.com/).

| SMILES | EC50 (P. falciparum Dd2) | EC50 (attb ScDHODH) | EC50 (Attb) | RT-qPCR mean fold change, F3D7_0106100 [1] | RT-qPCR mean fold change, MSTRG.194.1 [1] | RT-qPCR mean fold change, MSTRG.363.2 [1] | RT-qPCR mean fold change, PF3D7_0519200 [1] | RT-qPCR mean fold change, PF37D_1419800 [1] | EC50 (PfCARL_I1139K) | EC50 (PfACS_A597) | EC50 (PfPI4K_S1320L) | EC50 (HepG2-A16-CD81 cells) |
| --- | --- | --- | --- | --- | --- | --- | --- | --- | --- | --- | --- | --- |
| CC(=O)NC(C)(C)C(=O)N1CCC[C@H]1C(=O)NC(C)(C)C(=O)N[C@@H](C)C(=O)NC(C)(C)C(=O)N[C@@H](C)C(=O)N[C@@H](CCC(N)=O)C(=O)NC(C)(C)C(=O)N[C@H](C(=O)NC(C)(C)C(=O)NCC(=O)N[C@@H](CC(C)C)C(=O)NC(C)(C)C(=O)N1CCC[C@H]1C(=O)N[C@H](C(=O)NC(C)(C)C(=O)NC(C)(C)C(=O)N[C@@H](CCC(=O)O)C(=O)N[C@@H](CCC(N)=O)C(=O)N[C@H](CO)Cc1ccccc1)C(C)C)C(C)C [Alamethicin, reference compound] (Ac-[Aib]P[Aib]A[Aib]AQ[Aib]V[Aib]GL[Aib]PV[Aib][Aib]EQ[Phe(ol)]; N-terminus assumed) | 630 ± 50 nM |  |  |  |  |  |  |  |  |  |  |  |
| CC[C@H](C)[C@H](NC(=O)[C@H](CC(C)C)NC(=O)[C@H](CCC(N)=O)NC(=O)[C@@](C)(CC)NC(C)=O)C(=O)NC(C)(C)C(=O)N1CCC[C@H]1C(=O)N[C@](C)(CC)C(=O)N[C@@H](CC(C)C)C(=O)NC(C)(C)C(=O)N1CCC[C@H]1C(=O)N[C@H](CO)CC(C)C [HZ NPDG-I, harzianin NPDG I] (Ac-[dIva]QLI[Aib]P[dIva]L[Aib]P[Leu(ol)]) |  | 9.1 ± 1.5 nM | 5.7 ± 2.3 nM | −5.86 | 1.52 | 2.56 | −22.26 | −7.27 | 8 ± 1 nM | 23 ± 5 nM | 13 ± 3 nM | > 50000 nM |
